Data set [1] relates to U-2 OS and CHO cell lines. The data set is described as follows: Cellular retention and efflux characteristics test (before/after washing imaging, retaining ratio RR). Format: cell-based, human (U-2 OS), Chinese hamster (CHO). The conditions noted are these: 30 min. An excerpt:
To expedite an efficient strategy for ‘tame' probe development, we set up a system to predict cellular properties of fluorescent probes via phenotypic high-throughput screening (HTS), cheminformatics and statistical analysis (Fig. 1a). As the first step, we conducted phenotypic HTS to investigate cell permeability and nonspecific binding properties of the probes in a training set. We tested about 2,085 probes consisted of a wide range photophysical properties from numerous fluorophore cores such as BODIPY[12][13][14][15], xanthone, rosamine, cyanine[19][20] and ACEMAN[21]. Their cellular influx and efflux profiles were examined in two types of mammalian cells, U-2 OS and CHO. These cell lines were chosen due to their flexibility in genetic manipulation, adaptability to various culture conditions and versatility in wide biomedical research such as gene expression, toxicity screening, recombinant protein and live cell imaging. Each of the probes was added into live cells and cell image was taken after 30 min by ImageXpress Micro cellular imaging system (Molecular Device). The cells were then washed with fresh growth media, and after another 10 min, a second image was taken to check the completeness of probe washing out of the cell. The first and second imaging facilitated influx (before washing, BW) and efflux (after washing, AW) measurements, respectively (Supplementary Fig. 1).
To measure the influx and efflux of the probes, an automated quantitative intensity-based image analysis was then performed by Multi-Wavelength Cell Scoring analysis using MetaXpress High Content Image software. Retaining ratio (RR, per cent ratio of the average intensity of AW image over BW image) was computed to classify probes into the three phenotypic groups. For each cell in the image, the nuclei and cell region were segmented to provide approximate cellular boundaries. Fluorescence intensity was then quantified on a cell-by-cell basis by the following steps: (i) selecting the image of interest, (2) specifying the width of the stained cell area, (3) adjusting the intensity above local background for detection specificity, and (4) calculating fluorescence intensity with specified reporting parameters. Average fluorescence intensity for each BW and AW images was calculated for each probes and cell lines, and was then used as input in RR calculation (Supplementary Figs 2 and 3).
U-2 OS, a human osteosarcoma cell line, and CHO, a Chinese hamster ovary cell line, (from ATCC) were cultured in Dulbecco's modified eagle's medium (DMEM) (Invitrogen, CA, USA) supplemented with fetal bovine serum (FBS) (10%) and penicillin–streptomycin (1%). Materials used in the cell culture were purchased from Invitrogen. U-2 OS and CHO cells were seeded onto 96-well plate in growth media at 37 °C in the presence of 5% CO2 and were then allowed to attach and grow to 70–80% confluence. Library probes were dissolved in dimethylsulfoxide (DMSO) to make the 1 mM solution, and stored in −20 °C. Before HTS experiment, the growth media was aspirated and replaced by 200 μl fresh growth media containing probes in final concentration of 1 μM and nuclei dye Hoechst 33342. Plates were incubated for 30 min at 37 °C then were imaged using ImageXpress Micro cellular imaging system (Molecular Device) with × 10 objective lens. Immediately after image acquisition, the cells were washed with fresh growth media, and transferred back to a 37 °C cell incubator for further incubation. After 10 min, cells were again imaged (AW image). The first imaging step allowed influx measurement of BW image , while the second imaging step allowed out-flux measurement of AW image. Images of two regions per well were acquired with DAPI, FITC, TRITC or Texas Red filter sets according to probes' excitation and emission wavelength. Experiment was performed in duplicate. Cellular retention and efflux characteristics test for other synthesized probes were also done by using the same protocol. […]

A short description of data set [2]: Photostability measurements. Format: physicochemical. The conditions noted are these: 10 μM in PBS buffer pH 7.4 with 1% DMSO, intensive radiation of strong light source. The method, then:
10 μM of CO-1 solution in PBS buffer (pH 7.4) containing 1% DMSO were placed in a 96-well plates. Fluorescence measurement were recorded every 30 s interval for a total period of 12 h (Ex/Em=490/520) under a xenon flashlamp. For harsh condition experiment, photostability test was done under high intensity UV lamp (Blak Ray, 100 W, 365 nm). Plates were irradiated for 10 min up to 2.5 h at 10 cm distance.
Supplementary Figure 17 Photostability analysis of CO-1.
10 μM CO-1 solution in PBS buffer (pH 7.4) containing 1% DMSO were placed in a 96-well plates. (a) Fluorescence measurement were recorded every 30 seconds interval for a total period of 12 hours (Ex/Em = 490/520) under a xenon flashlamp. (b) Photostability test under high intensity UV lamp (Blak Ray, 100W, 365 nm). Plates were irradiated for 10 minutes up to 2.5 hours at 10 cm distance. Values are represented as means (n=3) and fitted to a non-linear regression one-phase exponential decay (GraphPad Prism 5.0)
(§1) (1 picture or pasted object on this page, not shown here)

In data set [3] the test system is human histone H2B (H2B-mKate2 fusion with Azi at site 16) in U-2 OS cells. The data set is described as follows: Histone H2B imaging in live cells (Azi incorporated in H2B-mKate2). Format: cell-based. The conditions noted are these: live U-2 OS cells, 10 μM, 37 °C.
Source text: The red fluorescent protein mKate2 was fused to the C terminus of human histone H2B as a red fluorescent marker. Using the in vivo unnatural amino acid (UAA) technology,[27][28] an azide-bearing UAA, p-azido-L-phenylalanine (Azi), was site-specifically incorporated at site 16 of mKate2 of the fusion protein H2B-mKate2, which was expressed in live U-2 OS cells. The cells were labelled with CO-1, washed to remove unreacted CO-1, and then imaged with laser scanning confocal microscopy.
U-2 OS cells were transfected with 1 μg DNA of each plasmid using Lipofectamine2000 in 35 mm glass bottom dishes according to the manufacturer protocol. Azi (purchased from Bachem) was added 1 h before transfection at a final concentration of 0.5 mM. Plasmid pIre-Azi3 (expressing the orthogonal amber suppressor transfer RNA (tRNA) and the E2AziRS specific for Azi) was co-transfected with plasmid pmH2B-6-mKate2-16tag in a 1:1 molar ratio. After 24 h, cells were washed three times with culture medium (DMEM with 10% FBS) (15 min each time). Growth media containing 10 μM CO-1 was then added to the dishes, and cells were incubated at 37 °C for 90 min followed by 4 times washing with growth media (30 min each time). Laser scanning confocal microscopy (Zeiss LSM 700) was used for imaging. The same conditions and settings were used for imaging control and experimental cells.
U-2 OS cells were transfected with plasmid pmH2B-6-mKate2. After 24 hours, cells were
labeled with 10 μM CO-1 for 90 minutes at 37 °C. Cells were washed to remove the unreacted
CO-1 and then imaged for mKate2 (red) and CO-1 (green) signals. Scale bar, 5 μm.
as §1

The structures appear in SMILES notation.

Regarding `Cc1cc(C)n2c1C(CCNC(=O)CCC(=O)OCC1C3CCC#CCCC31)=C1C=CC=[N+]1[B-]2(F)F` (stereo not drawn) [CO-1], the “Cellular retention after washing (probe signal)” value in data set [1] (CHO and U-2 OS cells, 1 uM probe) was “leave the cells after washing”. The Experimentally observed group result in data set [1] (U-2 OS and CHO cell lines, probe 1 μM, imaged before and 10 min after washing) was “L-group (Probes (FI(BW) >200) with rapid efflux were observed to have a RR of <5%, and thus were classified into L-group)”. The Photostability result in data set [2] is listed as “superior photostability”. For the same compound, in data set [3] (90 min), the “Labelling of Azi-bearing histone H2B-mKate2” value is “specific labelling of histone H2B” and the Nuclear membrane permeability result is reported as “pass through nuclear membrane”. Moreover, the “Labelling of wild type H2B-mKate2 (control without Azi)” value in data set [3] (90 minutes) is reported as “did not label wild type H2B-mKate2”.

(Values after article PMC4915154, “Development of background-free tame fluorescent probes for intracellular live cell imaging” (Nature Communications, 2016).)
